{"source": "paper PMC2896951", "about": "“The proline-rich peptide Bac7(1-35) reduces mortality from Salmonella typhimurium in a mouse model of infection” (BMC Microbiology, 2010)", "key": {"healthy animals / mice": {"tested_on": "healthy animals / mice", "conditions": "i.v.; cited from earlier work"}, "[1]": {"assay": "Antimicrobial activity of the labelled peptide (data not shown)", "assay_type": "cell-based"}, "[2]": {"tested_on": "E. coli infection; S. typhimurium disease", "design": "method as in 2 sources, one per row (each row's own in cited_ref): ref 8 = [8]; PMID 12222961; doi:10.1007/s00018-002-8493-8; Otvos L The short proline-rich antibacterial peptide family Cell Mol Life Sci 2002 59 7 1138 1150 10.1007/s00018-002-8493-8 12222961 PMC11337521 ||| ref 22 = [22]; PMID 2934362; doi:10.1093/jac/16.5.615; Easmon CS Blowers A Ciprofloxacin treatment of systemic salmonella infection in sensitive and resistance mice J Antimicrob Chemother 1985 16 5 615 619 10.1093/jac/16.5.615 2934362", "conditions": "Balb/c mice; cited from earlier work", "description": "As a first step to evaluate the therapeutic potential of Bac7(1-35), its in vivo toxicity was determined in Balb/c and CBA/Ca mice after injection via i.p. of increasing single peptide doses. […] For ... || The potential of Bac7(1-35) to protect mice from a bacterial challenge was tested by a mouse model of Salmonella infection. Infected mice develop a systemic disease characterized by rapid bacterial multiplication in the liver and spleen that resembles typhoid fever caused by Salmonella serovar Typhi in humans."}, "[3]": {"tested_on": "S. typhimurium ATCC 14028 infection in CBA/Ca mice", "assay": "Mouse model of typhoid fever, survival", "assay_type": "in vivo", "description": "Inocula containing 10^2 CFU/mouse of S. enterica ATCC 14028, expected to result in 90-100% mortality in 4-6 days for Balb/c and 10-18 days for CBA/Ca, were prepared by diluting log-phase bacterial cultures in sterile PBS. Ten mice were infected intraperitoneally and monitored for survival over a 60-day period after infection. Test peptide (30 mg/kg) was injected via i.p. after bacterial challenge. The choice of dose was based on preliminary data obtained with lower doses (data not shown) and on results reported in the literature for structurally similar peptides. Control mice were given 0.2 ml of PBS. […] The analysis of survival curves was conducted using the Kaplan-Meyer method and successive statistical evaluation by the Logrank test. Significance of percentage differences among groups was assessed by using the Fisher exact test. Values of p < 0.05 were considered statistically significant."}, "[4]": {"tested_on": "S. enterica ATCC 14028 in liver and spleen of CBA/Ca mice", "assay": "Viable colony counts in murine liver and spleen homogenates", "assay_type": "in vivo, mouse", "conditions": "30 mg/kg i.p., 3 days post-inoculation", "description": "Three days after bacterial infection, a group of 3 untreated and 3 peptide-treated mice were killed by cervical dislocation, and liver and spleen were removed. The organs were weighed, homogenized separately and dissolved in PBS. Suitable dilutions of 50 μL of the homogenate in PBS were plated in duplicate on Mueller-Hinton agar (Difco). The plates were then incubated at 37°C overnight to allow colony counts. Results are expressed as number of CFU/g of organ. This assay was repeated two fold."}, "Balb/c and CBA/Ca mice": {"tested_on": "Balb/c and CBA/Ca mice", "assay": "In vivo toxicity after single i.p. injection", "design": "species or system mouse", "description": "The in vivo toxicity of Bac7(1-35) was investigated by injecting mice via i.p. with increasing amounts of the peptide dissolved in apyrogen PBS (0.2 ml per mouse). The controls received the vehicle alone. Animal behavior and survival were monitored over a 14-day period."}, "[5]": {"tested_on": "Salmonella enterica serovar Typhimurium ATCC 14028", "assay": "Killing kinetics assay (bactericidal activity) in the presence of biological fluids", "assay_type": "cell-based", "conditions": "for reduction of the number of CFU: 10 μM peptide, 1 h incubation, 37°C", "description": "Murine plasma obtained using 2% (v/v) Na-citrate as an anticoagulant, and serum were prepared and stored at -20°C until use. The bactericidal activity of Bac7(1-35) against Salmonella enterica serovar Typhimurium ATCC 14028 was determined by a killing kinetics assay. Mid-logarithmic phase S. enterica cultures were diluted in murine serum or plasma (66% v/v final concentration) or BSA (40 mg/mL) (Sigma) to give approximately 1 × 10^6 cells/ml, and incubated with 10 μM Bac7(1-35) in a shaking water bath at 37°C for different times. Samples were withdrawn, diluted and plated to allow colony counts."}, "[6]": {"conditions": "37°C, Western blot", "protocol": "(§1) At different times, aliquots of samples were diluted 1:5 in sample buffer (12% SDS, 6% dithiothreitol, 40% glycerol, 0.05% bromophenol blue, 150 mM Tris-HCl, pH 7), incubated for 15 min at 60°C and analyzed on a 16% Tricine/SDS gel. Proteins were then blotted onto nitrocellulose membrane (Whatman), and incubated overnight with shaking at 4°C in 40 mM Tris-HCl, pH 7.5, 5% non-fat milk, 0.05% Tween 20, 200 mM NaCl (blocking solution). Samples were incubated for 90 min with 1:1000 rabbit anti-Bac7(1-35) IgG, diluted in blocking solution, followed by a HRP-conjugated anti-rabbit IgG (Sigma-Aldrich). The ECL detection system (GE Healthcare) was used to develop the Western blots."}, "[7]": {"conditions": "37°C, several days of incubation", "protocol": "as §1"}, "in vitro": {"assay": "in vitro", "description": "Bac7(1-35) peptide (50 μg) was incubated in 250 μL of PBS containing 25% (v/v) of murine serum or plasma at 37°C. At different time intervals (0, 1, 2, 4, 8 and 24 h), aliquots of 25 μL (corresponding to 5 μg of peptide) were added to 65 μL of cold 0.5% (v/v) TFA in H2O, kept on ice for 5 min and than centrifuged at 10.000 × g for 5 min. The LC-MS analysis of supernatants were carried out as described, using a standard curve to calculate the peptide concentration."}}, "note": "Where a SMILES comes first, the peptide text is derived from it. Where no end group is shown, it is not given here."}
{"compound": "Drosocin: insect proline-rich AMP (GKPRPYSPRPTSHPRPIRV; ends and bridges not checked; UniProt P36193 22-40, looked up)", "values": [{"measurement": "dose at which completely devoid of toxicity", "setting": "healthy animals / mice", "value": 100, "unit": "mg/kg"}]}
{"compound": "Bac7(1-35)-Alexa680: derivative of Bac7(1-35) fluorescently labelled with the dye Alexa680 via an added C-terminal cysteine (RRIRPRPPRLPRPRPRPLPFPRPGPRPIPRPLPFP-{C(Alexa Fluor 680 C2-maleimide)}; UniProt P19661 131-165, looked up, fragment)", "values": [{"measurement": "antimicrobial activity relative to the unlabelled peptide", "setting": "[1]", "value": "comparable"}]}
{"compound": "O=C(O)c1cn(C2CC2)c2cc(N3CCNCC3)c(F)cc2c1=O", "note": "[ciprofloxacin]", "values": [{"measurement": "prevention of fatal S. typhimurium disease", "setting": "[2]", "value": "failed to prevent"}]}
{"compound": "CC[C@H](C)[C@H](NC(=O)[C@H](CCCNC(=N)N)NC(=O)[C@@H](N)CCCNC(=N)N)C(=O)N[C@@H](CCCNC(=N)N)C(=O)N1CCC[C@H]1C(=O)N[C@@H](CCCNC(=N)N)C(=O)N1CCC[C@H]1C(=O)N1CCC[C@H]1C(=O)N[C@@H](CCCNC(=N)N)C(=O)N[C@@H](CC(C)C)C(=O)N1CCC[C@H]1C(=O)N[C@@H](CCCNC(=N)N)C(=O)N1CCC[C@H]1C(=O)N[C@@H](CCCNC(=N)N)C(=O)N1CCC[C@H]1C(=O)N[C@@H](CCCNC(=N)N)C(=O)N1CCC[C@H]1C(=O)N[C@@H](CC(C)C)C(=O)N1CCC[C@H]1C(=O)N[C@@H](Cc1ccccc1)C(=O)N1CCC[C@H]1C(=O)N[C@@H](CCCNC(=N)N)C(=O)N1CCC[C@H]1C(=O)NCC(=O)N1CCC[C@H]1C(=O)N[C@@H](CCCNC(=N)N)C(=O)N1CCC[C@H]1C(=O)N[C@H](C(=O)N1CCC[C@H]1C(=O)N[C@@H](CCCNC(=N)N)C(=O)N1CCC[C@H]1C(=O)N[C@@H](CC(C)C)C(=O)N1CCC[C@H]1C(=O)N[C@@H](Cc1ccccc1)C(=O)N1CCC[C@H]1C(=O)O)[C@@H](C)CC", "note": "[Bac7(1-35)] (H-RRIRPRPPRLPRPRPRPLPFPRPGPRPIPRPLPFP-OH; N-terminus and C-terminus assumed)", "values": [{"measurement": "mean survival time", "setting": "[3]; 30 mg/kg i.p. after i.p. challenge with 1 × 10^2 CFU/mouse, 60 days monitoring, control 10 days, p = 0.01", "value": 24.5, "unit": "days"}, {"measurement": "infected mice completely cured (survival)", "setting": "[3]; 30 mg/kg i.p., 60 days, untreated 0%, p = 0.04", "value": 36, "unit": "%"}, {"measurement": "fraction of animals with bacteria undetectable in both spleen and liver", "setting": "[4]", "value": "1/3"}, {"measurement": "number of viable bacterial cells in liver and spleen homogenates", "setting": "[4]; CBA/Ca mice", "value": "decreased significantly"}, {"measurement": "dose at which mice died", "setting": "Balb/c and CBA/Ca mice; highest dose", "value": 150, "unit": "mg/kg"}, {"measurement": "dose with no apparent toxic effect", "setting": "Balb/c and CBA/Ca mice; monitored over 14 days", "value": "up to 75 mg/kg"}, {"measurement": "reduction of the number of CFU", "setting": "[5]; in the absence of serum/plasma", "value": 2.5, "unit": "log"}, {"measurement": "reduction of the number of CFU", "setting": "[5]; with 66% murine serum or plasma, approx. 1 × 10^6 cells/ml, three independent determinations in triplicate", "value": "0.5-1 log"}, {"measurement": "bactericidal activity upon addition of BSA", "setting": "[5]; 40 mg/mL BSA, data not shown", "value": "did not change"}, {"measurement": "peptide concentration giving a CFU reduction comparable to 10 μM in serum/plasma", "setting": "[5]; without the presence of plasma/serum, 1 h", "value": 1, "unit": "µM"}, {"measurement": "degradation in plasma relative to serum (immunodetection)", "setting": "[6]; 25% (v/v) murine plasma in PBS, up to 24 h", "value": "slower"}, {"measurement": "band corresponding to intact peptide (immunodetection)", "setting": "[6]; 25% (v/v) murine serum in PBS, 24 h incubation, 120 μg in 200 μL", "value": "disappeared"}, {"measurement": "peptide degradation in PBS alone", "setting": "[7]", "value": "no peptide degradation was observed"}, {"measurement": "degradation process in plasma relative to serum", "setting": "in vitro; 25% (v/v) murine plasma in PBS, 37°C, LC-MS", "value": "slower in plasma than in serum"}, {"measurement": "state of the peptide after 8 h", "setting": "in vitro; 25% (v/v) murine serum in PBS, 37°C, 8 h incubation, LC-MS", "value": "almost completely degraded"}, {"measurement": "metabolised at 1 h, 200 μg/mL", "setting": "in vitro; mouse, 25% (v/v) murine serum in PBS", "value": 10, "unit": "%"}]}
